According to US11691962B2 (eXIthera Pharmaceuticals, Inc., priority 2018, dated 2023):

Target: Factor XIa (Homo sapiens (Human), UniProt P03951)
Assay: Factor XIa enzyme inhibition assay (dose response, fluorogenic AMC substrate)
Format: biochemical
Settings: read-out: hFXIa IC50
Description: • Assay buffer: 20 mM Hepes, pH 7.4; 150 mM NaCl; 0.02% Tween 20 • Compounds: 10 mM stocks in DMSO • Substrate: 20 mM Glp-Pro-Arg-AMC, 25 mg/2.3 mL H2O (store at +4° C.) [Factor XIa, thrombin, and trypsin] • 20 mM Pro-Phe-Arg-AMC (Bachem I-1295), 25 mg/2.2 mL H2O • or Boc-Leu-Gly-Arg-AMC (Bachem I-1105), 25 mg/2.07 mL H2O • (store at +4° C.) [Factor Xa] • Enzyme: Factor XIa; 0.25 μM in 50% glycerol (20 μg/mL) • Trypsin; 0.2 μM in 50% glycerol (4.8 μg/mL) • Thrombin; 0.2 μM in 50% glycerol (7.34 μg/mL) • Factor Xa; 0.2 μM in 50% glycerol (9.2 μg/mL) • These stocks are aliquoted (˜100 μL/aliquot) and stored at −20° C. Methods: • 1. Dilute the substrate to 100 μM in assay buffer (30 μL/6 mL). The enzyme is diluted to 0.5 nM just prior to use (12 μL/6 mL for Factor XIa; 15 μL/6 mL for all of the rest.) • 2. Pipette 50 μL of substrate into each well of the 96 well (12×8) microtiter plate. (Column 1 is used as the 100% activity control and receives no compound, and Column 12 is the blank and receives no enzyme.) Add an additional 46 μL to column 2. • 3. Pipette 4 μL of each compound into the appropriate well in column 2 of the plate (unknowns assayed in triplicate, standard assayed in duplicate). The final compound concentration will be […] of the stock. • 4. Serially two-fold dilute the compound by mixing the sample in column 2, removing 50 μL to the next well (column 3), mix and remove to column 4, etc. until column 11. After mixing column 11, remove 50 μL and discard. • 5. Pipette 50 μL of buffer into column 12. Initiate the reaction by adding 50 μL of enzyme solution to each well of columns 1-11 as rapidly as possible. • 6. Read the plate in a spectrophotometer (SpectraMax) at 30° C., wherein each well is measured every 60 s for 30 min. For Factor Xa assays, each well is measured every 1 min for a total of 60 min. • 7. For Factor XIa assays, the compounds are assayed, in duplicate, at 3 different starting concentrations, 20, 2, and 0.2 μM; 1:10, 1:100, and 1:1000 dilution of 10 mM stock or at 2, 0.2, and 0.02 μM; 1:100, 1:1000, and 1:10,000 dilution of 10 mM stock. Data for each concentration are combined for graphing and data fitting. • 8. Data can be used both for estimation of IC50 and for estimation of Kon.
Potential inhibitors of Factor XIa were evaluated using the following assay.
PyroGlu-Pro-Arg-7-methylaminocourin (AMC), available from CPC Scientific, Inc., is based on the substrate pyro-Glu-Pro-Arg-pNA (S-2366), available from Diapharma Group, Inc. (Columbus, Ohio), wherein the p-nitroanaline group is replaced with 7-methylaminocoumarin (AMC).
The final concentration of the substrate in the assay was 50 μM, and the final concentration of the enzyme was 0.25 nM. Inhibitors were tested by serial dilution over an appropriate range to yield a dose response curve for determination of the inhibitors' IC50 value. The assay mixture was read every minute for 30 minutes in order to generate progress curves. The plates were read in a Spectramax m5 Multimode Plate Reader (Molecular Devices LLC, Sunnyvale, Calif.). Dose response curves were fit to Equation 1 below in which A is the maximum inhibition, B is the minimum inhibition, C is the IC50, and D is the Hill coefficient. Y=[(A−B)/(1+(X/C)^D)]+B (Equation 1)

Chain of Factor XIa (P03951 388-625): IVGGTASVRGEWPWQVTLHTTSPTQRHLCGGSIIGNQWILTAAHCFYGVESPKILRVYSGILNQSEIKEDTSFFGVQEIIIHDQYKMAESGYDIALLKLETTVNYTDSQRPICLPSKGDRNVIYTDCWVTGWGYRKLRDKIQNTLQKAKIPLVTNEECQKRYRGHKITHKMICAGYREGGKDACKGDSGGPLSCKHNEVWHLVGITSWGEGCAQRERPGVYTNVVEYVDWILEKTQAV
Chain of Factor XIa (P03951 19-387 partner): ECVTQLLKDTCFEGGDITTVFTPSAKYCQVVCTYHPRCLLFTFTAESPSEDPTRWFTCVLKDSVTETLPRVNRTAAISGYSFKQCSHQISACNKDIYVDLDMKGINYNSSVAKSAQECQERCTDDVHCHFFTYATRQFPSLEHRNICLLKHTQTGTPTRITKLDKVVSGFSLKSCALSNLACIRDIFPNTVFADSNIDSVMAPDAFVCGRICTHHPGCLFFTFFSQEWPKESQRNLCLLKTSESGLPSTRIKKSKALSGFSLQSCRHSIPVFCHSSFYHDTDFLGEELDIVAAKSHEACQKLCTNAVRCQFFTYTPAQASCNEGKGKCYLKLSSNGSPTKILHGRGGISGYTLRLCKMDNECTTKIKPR

| IC50 [nM] | Compound |
| --- | --- |
| 10 to 100 | CC[C@@H](NC(=O)N1C(=O)[C@H](Cc2ccnc(N)c2)[C@H]1C(=O)N(C)c1ccsn1)c1ccccc1 [Compound 1-21, (2S,3R)-3-((2-aminopyridin-4-yl)methyl)-N2-(3-isothiazolyl)-N1-((R)-1-phenylpropyl)-N2-methyl-4-oxoazetidine-1,2-dicarboxamide] |
| < 10 | CC[C@@H](NC(=O)N1C(=O)[C@H](Cc2ccnc(N)c2)[C@H]1C(=O)N(C)c1ccn(C)n1)c1ccc(C)nc1 [Compound 1-20, (2S,3R)-3-((2-aminopyridin-4-yl)methyl)-N2-(1-methyl-1H-pyrazol-3-yl)-N1-((R)-1-(6-methylpyridin-3-yl)propyl)-N2-methyl-4-oxoazetidine-1,2-dicarboxamide] |
| 10 to 100 | CC[C@H](NC(=O)N1C(=O)[C@H](Cc2ccnc(N)c2)[C@H]1C(=O)N(C)c1ccn(C)n1)c1cccc(Cl)c1 [Compound 1-93, (2S,3R)-3-((2-aminopyridin-4-yl)methyl)-N2-(1-methyl-1H-pyrazol-3-yl)-N1-((S)-1-(3-chlorophenyl)propyl)-N2-methyl-4-oxoazetidine-1,2-dicarboxamide] |
| < 10 | CC[C@@H](NC(=O)N1C(=O)[C@H](Cc2ccnc(N)c2)[C@H]1C(=O)N(C)c1ccn(C)n1)c1cccc(C)c1C [Compound 1-140, (2S,3R)-3-((2-aminopyridin-4-yl)methyl)-N2-(1-methyl-1H-pyrazol-3-yl)-N1-((R)-1-(2,3-dimethylphenyl)propyl)-N2-methyl-4-oxoazetidine-1,2-dicarboxamide] |
| 100 to 1000 | CC[C@@H](NC(=O)N1C(=O)[C@H](Cc2ccnc(N)c2)[C@H]1C(=O)N(C)c1nccn1C)c1cccc(F)c1C [Compound 1-86, (2S,3R)-3-((2-aminopyridin-4-yl)methyl)-N2-(1-methyl-1H-imidazol-2-yl)-N1-((R)-1-(3-fluoro-2-methylphenyl)propyl)-N2-methyl-4-oxoazetidine-1,2-dicarboxamide] |
| 10 to 100 | CC[C@@H](NC(=O)N1C(=O)[C@H](Cc2cc(C)nc(N)c2)[C@H]1C(=O)N(C)c1cnn(C)c1)c1ccc(C)cc1 [Compound 1-181, (2S,3R)-3-((2-amino-6-methylpyridin-4-yl)methyl)-N2-(1-methyl-1H-pyrazol-4-yl)-N1-((R)-1-(4-methylphenyl)propyl)-N2-methyl-4-oxoazetidine-1,2-dicarboxamide] |
| < 10 | CC[C@@H](NC(=O)N1C(=O)[C@H](Cc2ccnc(N)c2)[C@H]1C(=O)N(C)c1nccn1C)c1ccc(F)c(C)c1C [Compound 1-211, (2S,3R)-3-((2-aminopyridin-4-yl)methyl)-N2-(1-methyl-1H-imidazol-2-yl)-N1-((R)-1-(2,3-dimethyl-4-fluorophenyl)propyl)-N2-methyl-4-oxoazetidine-1,2-dicarboxamide] |
| 10 to 100 | CC[C@@H](NC(=O)N1C(=O)[C@H](Cc2cc(C)nc(N)c2)[C@H]1C(=O)N(C)c1nccn1C)C1CCCCC1 [Compound 1-75, (2S,3R)-3-((2-amino-6-methylpyridin-4-yl)methyl)-N2-(1-methyl-1H-imidazol-2-yl)-N1-((R)-1-cyclohexylpropyl)-N2-methyl-4-oxoazetidine-1,2-dicarboxamide] |
| < 10 | CC[C@@H](NC(=O)N1C(=O)[C@H](Cc2ccnc(N)c2)[C@H]1C(=O)N(C)c1ccnn1C)c1ccc(C)c(F)c1F [Compound 1-202, (2S,3R)-3-((2-aminopyridin-4-yl)methyl)-N2-(1-methyl-1H-pyrazol-5-yl)-N1-((R)-1-(2,3-difluoro-4-methylphenyl)propyl)-N2-methyl-4-oxoazetidine-1,2-dicarboxamide] |
| 10 to 100 | CC[C@@H](NC(=O)N1C(=O)[C@H](Cc2ccnc(N)c2)[C@H]1C(=O)N(C)c1ccn(C)n1)c1cccc(C)c1 [Compound 1-14, (2S,3R)-3-((2-aminopyridin-4-yl)methyl)-N2-(1-methyl-1H-pyrazol-3-yl)-N1-((R)-1-(3-methylphenyl)propyl)-N2-methyl-4-oxoazetidine-1,2-dicarboxamide] |
| < 10 | CC[C@@H](NC(=O)N1C(=O)[C@H](Cc2ccnc(N)c2)[C@H]1C(=O)N(C)c1nccn1C)c1ccc(F)c(C)c1 [Compound 1-117, (2S,3R)-3-((2-aminopyridin-4-yl)methyl)-N2-(1-methyl-1H-imidazol-2-yl)-N1-((R)-1-(3-methyl-4-fluorophenyl)propyl)-N2-methyl-4-oxoazetidine-1,2-dicarboxamide] |
| 10 to 100 | CC[C@@H](NC(=O)N1C(=O)[C@H](Cc2cc(C)nc(N)c2)[C@H]1C(=O)N(C)c1cnn(C)c1)c1cc(C)ccc1C [Compound 1-176, (2S,3R)-3-((2-amino-6-methylpyridin-4-yl)methyl)-N2-(1-methyl-1H-pyrazol-4-yl)-N1-((R)-1-(2,5-dimethylphenyl)propyl)-N2-methyl-4-oxoazetidine-1,2-dicarboxamide] |
| < 10 | CC[C@@H](NC(=O)N1C(=O)[C@H](Cc2ccnc(N)c2)[C@H]1C(=O)N(C)c1ccnn1C)c1ccc(F)c(F)c1 [Compound 1-215, (2S,3R)-3-((2-aminopyridin-4-yl)methyl)-N2-(1-methyl-1H-pyrazol-5-yl)-N1-((R)-1-(3,4-difluorophenyl)propyl)-N2-methyl-4-oxoazetidine-1,2-dicarboxamide] |
| 10 to 100 | CC[C@@H](NC(=O)N1C(=O)[C@H](Cc2cc(C)nc(N)c2)[C@H]1C(=O)N(C)c1cnn(C)c1)c1ccc(Cl)cc1 [Compound 1-170, (2S,3R)-3-((2-amino-6-methylpyridin-4-yl)methyl)-N2-(1-methyl-1H-pyrazol-4-yl)-N1-((R)-1-(4-chlorophenyl)propyl)-N2-methyl-4-oxoazetidine-1,2-dicarboxamide] |
| < 10 | CC[C@@H](NC(=O)N1C(=O)[C@H](Cc2cc(C)nc(N)c2)[C@H]1C(=O)N(C)c1ccn(C)n1)c1ccc(C)c(Cl)c1 [Compound 1-147, (2S,3R)-3-((2-amino-6-methylpyridin-4-yl)methyl)-N2-(1-methyl-1H-pyrazol-3-yl)-N1-((R)-1-(3-chloro-4-methylphenyl)propyl)-N2-methyl-4-oxoazetidine-1,2-dicarboxamide] |
| < 10 | CC[C@@H](NC(=O)N1C(=O)[C@H](Cc2cc(C)nc(N)c2)[C@H]1C(=O)N(C)c1cnn(C)c1)c1ccc(C)cc1C [Compound 1-179, (2S,3R)-3-((2-amino-6-methylpyridin-4-yl)methyl)-N2-(1-methyl-1H-pyrazol-4-yl)-N1-((R)-1-(2,4-dimethylphenyl)propyl)-N2-methyl-4-oxoazetidine-1,2-dicarboxamide] |
| 10 to 100 | CC[C@@H](NC(=O)N1C(=O)[C@H](Cc2cc(C)nc(N)c2)[C@H]1C(=O)N(C)c1cnn(C)c1)c1ccc(F)c(C)c1 [Compound 1-171, (2S,3R)-3-((2-amino-6-methylpyridin-4-yl)methyl)-N2-(1-methyl-1H-pyrazol-4-yl)-N1-((R)-1-(4-fluoro-3-methylphenyl)propyl)-N2-methyl-4-oxoazetidine-1,2-dicarboxamide] |
| < 10 | CC[C@@H](NC(=O)N1C(=O)[C@H](Cc2cc(C)nc(N)c2)[C@H]1C(=O)N(C)c1cnn(C)c1)c1cc(F)ccc1C [Compound 1-178, (2S,3R)-3-((2-amino-6-methylpyridin-4-yl)methyl)-N2-(1-methyl-1H-pyrazol-4-yl)-N1-((R)-1-(5-fluoro-2-methylphenyl)propyl)-N2-methyl-4-oxoazetidine-1,2-dicarboxamide] |
| < 10 | CC[C@@H](NC(=O)N1C(=O)[C@H](Cc2ccnc(N)c2)[C@H]1C(=O)N(C)c1nccn1C)c1ccc(C)cc1Cl [Compound 1-116, (2S,3R)-3-((2-aminopyridin-4-yl)methyl)-N2-(1-methyl-1H-imidazol-2-yl)-N1-((R)-1-(2-chloro-4-methylphenyl)propyl)-N2-methyl-4-oxoazetidine-1,2-dicarboxamide] |
